From ChEMBL document CHEMBL1909046, “DrugMatrix in vitro pharmacology data”

Legend:
[1] = molecular target: Platelet-activating factor receptor (Homo sapiens, UniProt P25105); type: tissue-based; note: in other assays of this panel Not Active means under 50% inhibition at 10 µM
[2] = molecular target: T1, Muscarinic acetylcholine receptor M4 (Homo sapiens, UniProt P08173); type: cell membranes, CHO-K1, Membrane; settings: for Ki: read-out: Ki; for all read-outs here: in other assays of this panel Not Active means under 50% inhibition at 10 µM
T1 sequence (P08173 whole entry): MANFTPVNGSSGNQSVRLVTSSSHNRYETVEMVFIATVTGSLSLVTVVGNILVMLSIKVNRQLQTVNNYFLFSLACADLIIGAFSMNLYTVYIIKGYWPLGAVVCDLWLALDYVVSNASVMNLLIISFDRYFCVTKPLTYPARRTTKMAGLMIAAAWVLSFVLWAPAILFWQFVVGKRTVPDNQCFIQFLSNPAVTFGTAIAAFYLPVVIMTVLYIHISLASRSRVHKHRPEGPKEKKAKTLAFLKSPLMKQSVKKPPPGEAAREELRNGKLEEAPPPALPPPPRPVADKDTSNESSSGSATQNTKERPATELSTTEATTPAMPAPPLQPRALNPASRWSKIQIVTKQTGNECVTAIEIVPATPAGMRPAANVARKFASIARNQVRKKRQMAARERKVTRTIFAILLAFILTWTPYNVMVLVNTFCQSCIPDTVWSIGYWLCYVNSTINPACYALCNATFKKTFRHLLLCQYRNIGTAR

Carbonic anhydrase 2 = Carbonic anhydrase 2 (Homo sapiens, UniProt P00918); test: DRUGMATRIX: Carbonic Anhydrase II enzyme inhibition (substrate: 4-Nitrophenyl acetate (4-NPA)); type: tissue-based; settings: erythrocyte; Not Active = under 50% inhibition at 10 µM
[3] = molecular target: Aldo-keto reductase family 1 member B1 (Rattus norvegicus, UniProt P07943); type: tissue-based, Lens of camera-type eye;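 note: inhibition of aldose reductase enzyme activity, measured with DL-glyceraldehyde as the substrate; in other assays of this panel Not Active means under 50% inhibition at 10 µM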
Cytochrome P450 3A4 = Cytochrome P450 3A4 (Homo sapiens, UniProt P08684); settings: bti-tn-5b1-4; note: in other assays of this panel Not Active means under 50% inhibition at 10 µM
[4] = molecular target: C-C chemokine receptor type 2 (Homo sapiens, UniProt P41597); type: cell membranes, Membrane; settings: cho-k1; note: in other assays of this panel Not Active means under 50% inhibition at 10 µM
[5] = DRUGMATRIX: Sigma2 radioligand binding (ligand: [3H] Ifenprodil); type: cell membranes, Rattus norvegicus, Wistar, Brain, Membrane; settings: Not Active = under 50% inhibition at 10 µM

Cytochrome P450 3A4, sequence (P08684 whole entry): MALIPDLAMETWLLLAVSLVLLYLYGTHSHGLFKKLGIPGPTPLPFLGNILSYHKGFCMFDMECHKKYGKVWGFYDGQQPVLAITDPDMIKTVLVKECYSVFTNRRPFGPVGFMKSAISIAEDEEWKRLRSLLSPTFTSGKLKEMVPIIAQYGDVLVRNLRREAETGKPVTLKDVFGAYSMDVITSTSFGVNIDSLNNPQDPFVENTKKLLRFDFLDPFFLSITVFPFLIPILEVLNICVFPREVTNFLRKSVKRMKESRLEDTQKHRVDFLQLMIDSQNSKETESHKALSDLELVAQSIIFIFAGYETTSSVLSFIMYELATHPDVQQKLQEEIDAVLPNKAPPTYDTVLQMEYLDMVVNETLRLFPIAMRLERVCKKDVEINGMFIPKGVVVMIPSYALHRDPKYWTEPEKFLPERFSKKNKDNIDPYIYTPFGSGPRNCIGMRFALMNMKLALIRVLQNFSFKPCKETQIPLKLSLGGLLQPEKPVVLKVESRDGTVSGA
Platelet-activating factor receptor, sequence (P25105 whole entry): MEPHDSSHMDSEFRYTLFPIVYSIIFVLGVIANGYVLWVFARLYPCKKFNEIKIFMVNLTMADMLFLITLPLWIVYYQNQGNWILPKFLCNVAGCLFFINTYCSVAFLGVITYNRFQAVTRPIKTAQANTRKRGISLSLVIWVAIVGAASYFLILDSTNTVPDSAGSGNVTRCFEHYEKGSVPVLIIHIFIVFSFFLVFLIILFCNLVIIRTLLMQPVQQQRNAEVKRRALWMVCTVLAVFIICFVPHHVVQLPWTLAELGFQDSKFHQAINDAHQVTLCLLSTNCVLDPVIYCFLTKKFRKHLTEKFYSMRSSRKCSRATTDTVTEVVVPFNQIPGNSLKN
C-C chemokine receptor type 2, sequence (P41597 whole entry): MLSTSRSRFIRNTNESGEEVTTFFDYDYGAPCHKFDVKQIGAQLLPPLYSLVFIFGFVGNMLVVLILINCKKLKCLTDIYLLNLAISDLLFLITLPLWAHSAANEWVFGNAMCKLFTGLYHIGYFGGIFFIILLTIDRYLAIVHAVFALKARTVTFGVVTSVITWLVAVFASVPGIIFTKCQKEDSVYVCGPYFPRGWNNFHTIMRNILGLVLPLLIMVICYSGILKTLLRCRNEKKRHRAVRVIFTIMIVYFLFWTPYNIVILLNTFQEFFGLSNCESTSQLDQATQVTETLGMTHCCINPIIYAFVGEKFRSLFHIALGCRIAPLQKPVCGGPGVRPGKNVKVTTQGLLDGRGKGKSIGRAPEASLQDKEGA

Row | Structure (SMILES) | IC50 [1] | IC50 ([2]; cho-k1) | IC50 (Carbonic anhydrase 2) | IC50 [3] | IC50 (Cytochrome P450 3A4) | Ki (Cytochrome P450 3A4) | IC50 [4] | IC50 [5] | Ki [5] | IC50 ([2]; read-out: IC50) [nM] | Ki [2] [nM] | IC50 ([5]; read-out: IC50) [nM] | Ki ([5]; read-out: Ki) [nM]
1 | Cc1cc2c(OCC(CNC(C)(C)C)OC(=O)c3ccccc3)cccc2[nH]1 (stereo unspecified) [BOPINDOLOL] | Not Active | Not Active | Not Active | Not Active | Not Active | Not Active | Not Active | Not Active | Not Active |  |  |  | 
2 | Brc1c(NC2=NCCN2)ccc2nccnc12 [BRIMONIDINE] | Not Active | Not Active | Not Active | Not Active | Not Active | Not Active | Not Active | Not Active | Not Active |  |  |  | 
3 | CN(C)[C@@H]1C(O)=C(C(N)=O)C(=O)[C@@]2(O)C(O)=C3C(=O)c4c(O)ccc(Cl)c4[C@@](C)(O)[C@H]3C[C@@H]12 [CHLORTETRACYCLINE] | Not Active | Not Active | Not Active | Not Active | Not Active | Not Active | Not Active | Not Active | Not Active |  |  |  | 
4 | CCC(=O)O[C@]1(C(=O)CCl)[C@@H](C)C[C@H]2[C@@H]3CCC4=CC(=O)C=C[C@]4(C)[C@@]3(F)[C@@H](O)C[C@@]21C [CLOBETASOL PROPIONATE] | Not Active | Not Active | Not Active | Not Active | Not Active | Not Active | Not Active | Not Active | Not Active |  |  |  | 
5 | O=C1CN=C(c2ccccc2Cl)c2cc([N+](=O)[O-])ccc2N1 [CLONAZEPAM] | Not Active | Not Active | Not Active | Not Active | Not Active | Not Active | Not Active | Not Active | Not Active |  |  |  | 
6 | Nc1ccn([C@@H]2O[C@H](CO)[C@@H](O)[C@@H]2O)c(=O)n1 [CYTARABINE] | Not Active | Not Active | Not Active | Not Active | Not Active | Not Active | Not Active | Not Active | Not Active |  |  |  | 
7 | C[C@@H]1C[C@H]2[C@@H]3CCC4=CC(=O)C=C[C@]4(C)[C@@]3(F)[C@@H](O)C[C@]2(C)[C@H]1C(=O)CO [DESOXIMETASONE] | Not Active | Not Active | Not Active | Not Active | Not Active | Not Active | Not Active | Not Active | Not Active |  |  |  | 
8 | CN(C)CC[C@@H](c1ccc(Cl)cc1)c1ccccn1 [DEXCHLORPHENIRAMINE] | Not Active |  | Not Active | Not Active | Not Active | Not Active | Not Active |  |  | 1980 | 276 | 19100 | 11700
9 | C[C@@H]1CC[C@@]2(OC1)O[C@H]1[C@@H](O)[C@H]3[C@@H]4CC[C@H]5C[C@@H](O[C@@H]6O[C@H](CO)[C@H](O[C@@H]7O[C@H](CO)C(O)[C@H](O[C@@H]8OC[C@@H](O)[C@H](O)[C@H]8O)[C@H]7O[C@@H]7O[C@H](CO)[C@H](O)[C@H](O[C@@H]8O[C@H](CO)[C@@H](O)[C@H](O)[C@H]8O)[C@H]7O)[C@H](O)[C@H]6O)[C@H](O)C[C@]5(C)[C@H]4CC[C@]3(C)[C@H]1[C@@H]2C (stereo partly specified) [DIGITONIN] | Not Active | Not Active | Not Active | Not Active | Not Active | Not Active | Not Active | Not Active | Not Active |  |  |  | 
10 | OC(CCCN1CCCCC1)(c1ccccc1)c1ccccc1 [DIPHENIDOL] | Not Active |  | Not Active | Not Active | Not Active | Not Active | Not Active | Not Active | Not Active | 271 | 38 |  | 
11 | C[C@H]1O[C@@H](n2cc(F)c(=O)[nH]c2=O)[C@H](O)[C@@H]1O [DOXIFLURIDINE] | Not Active | Not Active | Not Active | Not Active | Not Active | Not Active | Not Active | Not Active | Not Active |  |  |  | 
12 | Cn1c(=O)c2c(ncn2CC(O)CO)n(C)c1=O (stereo unspecified) [DYPHYLLINE] | Not Active | Not Active | Not Active | Not Active | Not Active | Not Active | Not Active | Not Active | Not Active |  |  |  | 
13 | CC[C@H]1CN2CCc3cc(OC)c(OC)cc3[C@@H]2C[C@@H]1C[C@H]1NCCc2cc(OC)c(OC)cc21 [EMETINE] | Not Active | Not Active | Not Active | Not Active | Not Active | Not Active | Not Active | Not Active | Not Active |  |  |  | 
14 | C[C@@H](CO)NC(=O)[C@@H]1C=C2c3cccc4[nH]cc(c34)C[C@H]2N(C)C1 [ERGONOVINE] | Not Active | Not Active | Not Active | Not Active | Not Active | Not Active | Not Active | Not Active | Not Active |  |  |  | 
15 | COC(=O)CCc1ccc(OCC(O)CNC(C)C)cc1 (stereo unspecified) [ESMOLOL] | Not Active | Not Active | Not Active | Not Active | Not Active | Not Active | Not Active | Not Active | Not Active |  |  |  | 
16 | CCC1(C)CC(=O)NC1=O (stereo unspecified) [ETHOSUXIMIDE] | Not Active | Not Active | Not Active | Not Active | Not Active | Not Active | Not Active | Not Active | Not Active |  |  |  | 
17 | C#C[C@]1(OC(C)=O)CC[C@H]2[C@@H]3CCC4=C[C@@H](OC(C)=O)CC[C@@H]4[C@H]3CC[C@@]21C [ETHYNODIOL DIACETATE] | Not Active | Not Active | Not Active | Not Active | Not Active | Not Active | Not Active | Not Active | Not Active |  |  |  | 
18 | C=CCc1ccc(O)c(OC)c1 [EUGENOL] | Not Active | Not Active | Not Active | Not Active | Not Active | Not Active | Not Active | Not Active | Not Active |  |  |  | 
19 | CC(C(=O)O)c1cccc(Oc2ccccc2)c1 (stereo unspecified) [FENOPROFEN] | Not Active | Not Active | Not Active | Not Active | Not Active | Not Active | Not Active | Not Active | Not Active |  |  |  | 
20 | CC(C)(C)NC(=O)[C@H]1CC[C@H]2[C@@H]3CC[C@H]4NC(=O)C=C[C@]4(C)[C@H]3CC[C@]12C [FINASTERIDE] | Not Active | Not Active | Not Active | Not Active | Not Active | Not Active | Not Active | Not Active | Not Active |  |  |  | 
21 | Nc1ccn([C@@H]2O[C@H](CO)[C@@H](O)C2(F)F)c(=O)n1 [GEMCITABINE] | Not Active | Not Active | Not Active | Not Active | Not Active | Not Active | Not Active | Not Active | Not Active |  |  |  | 
22 | N=C(N)NC(=O)Cc1c(Cl)cccc1Cl [GUANFACINE] | Not Active | Not Active | Not Active | Not Active | Not Active | Not Active | Not Active | Not Active | Not Active |  |  |  | 
23 | Oc1c(Cl)cc(Cl)c(Cl)c1Cc1c(O)c(Cl)cc(Cl)c1Cl [HEXACHLOROPHENE] | Not Active | Not Active | Not Active | Not Active | Not Active | Not Active | Not Active | Not Active | Not Active |  |  |  | 
24 | NNc1nncc2ccccc12 [HYDRALAZINE] | Not Active | Not Active | Not Active | Not Active | Not Active | Not Active | Not Active | Not Active | Not Active |  |  |  | 
25 | CC(C)NNC(=O)c1ccncc1 [IPRONIAZID] | Not Active | Not Active | Not Active | Not Active | Not Active | Not Active | Not Active | Not Active | Not Active |  |  |  | 
26 | Cc1c(OCC(F)(F)F)ccnc1C[S+]([O-])c1nc2ccccc2[nH]1 (stereo unspecified) [LANSOPRAZOLE] | Not Active | Not Active | Not Active | Not Active | Not Active | Not Active | Not Active | Not Active | Not Active |  |  |  | 
